In one experiment the test system is murine MEL cells. The format is cell-based, mouse.
Experiment [1] relates to T-lymphocyte development (thymus, spleen). The note with it: mouse, in vivo.
For another experiment, the system named is thymic rudiments. Description: Foetal thymic organ culture of transgenic embryos in the presence of rimantadine. The format is cell-based, mouse. The note with it: thymic lobes of 15 day embryos, 7 to 10 days culture with rimantadine, FACS. The source says: Opin. Immunol. 6:293-297.
Embryo sacs are removed from 15-day pregnant mice and the embryos released by cutting the umbilical cord. The embryos are stored on ice; non-embryo tissue is discarded. Any abnormal embryos, or asynchronous embryos as judged by size, are also discarded at this stage.
Foetal thymic lobes are dissected from the embryo and cultured on Costar filters (Coming) on RPMI medium. The filters are transferred to a new well of medium every day during the experiment.
At between 7 and 10 days, the thymic lobes are harvested, transferred to an eppendorf tube containing 200 μl medium, and the cells separated by teasing out mechanically. The cells are then analysed by FACS as described above.
In a second series of experiments, the thymic rudiments are cultured in the presence of rimantadine, and the cells analysed by FACS as described above.

Each structure is given as a SMILES string.

`CC(N)C12CC3CC(CC(C3)C1)C2` (stereo not shown) [Rimantadine]: in the experiment with murine MEL cells, the “cell kinetics after induction” value is “preceded by two cell doublings before terminal differentiation and growth arrest”; the “cloning of M2(H37A) mutant in MEL cells” value is “the mutant can be cloned”. In experiment [1], the “rescue of the lack of T-cells by administration of rimantadine” value is “not rescuable”. For the same molecule, the “rescue of T-cell production” value in the experiment with thymic rudiments is on record as “able to rescue T-cell production in the thymic rudiments”.

The values are drawn from patent US20040055024A1, “Conditional mutants of influenza virus M2 protein” (Medical Research Council, priority 1998, published 2004).
